Assay results as given in patent US9980943B2, “Methods of treating muscular dystrophy” (BOARD OF REGENTS OF THE NEVADA SYSTEM OF HIGHER EDUCATION, …, priority 2013, dated 2018).

Experiments:
Assay type in all cases: cell-based, mouse
[1] = tested on: α7 integrin (LacZ reporter in α7βgal+/− myoblasts); test: Myoblast α7+/LacZ integrin FDG assay (Burkin assay in myoblasts, 96-well); conditions: α7+/LacZ myoblasts, 96-well
[2] = tested on: α7 integrin (LacZ reporter in α7+/LacZ myotubes); test: Myotube α7 integrin FDG assay (Burkin assay in myotubes, 96-well); conditions: myotubes
[3] = tested on: β-galactosidase in CMV-LacZ C2C12 myoblasts; test: CMV-LacZ secondary screen in C2C12 myoblasts (β-Gal stabilizing assay); conditions: CMV-LacZ C2C12 myoblasts
Summary of the method: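 CMV-LacZ C2C12 line (clonal, FDG-screened); myoblasts/myotubes dosed 0.5–40 μM (0.5, 1, 5, 10, 20, 40 μM); n=2 per point; β-gal stabilization read-out.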

[4] = tested on: β-galactosidase in CMV-LacZ C2C12 myotubes; test: CMV-LacZ secondary screen in C2C12 myotubes (β-Gal stabilizing assay); conditions: C2C12 CMV-LacZ myotubes, fold relative to DMSO
Summary of the method: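 First, C2C12 myoblasts were transfected with a linearized CMV-LACZ vector and clonal lines selected by FDG β-gal assay. Then cells were exposed to compounds at 0.5, 1, 5, 10, 20 and 40 μM in 96-well format, two replicates each, and β-gal measured.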

Row | SMILES | Burkin Assay in Myoblasts, signal relative to DMSO ([1]; 0.5 uM) | Burkin Assay in Myoblasts, signal relative to DMSO ([1]; 1 uM) | Burkin Assay in Myoblasts, signal relative to DMSO ([1]; 5 uM) | Burkin Assay in Myoblasts, signal relative to DMSO ([1]; 10 uM) | Burkin Assay in Myoblasts, signal relative to DMSO ([1]; 20 uM) | Burkin Assay in Myoblasts, signal relative to DMSO ([1]; 40 uM) | Burkin Assay in Myotubes, α7 integrin LacZ reporter signal relative to DMSO ([2]; 0.5 uM) | Burkin Assay in Myotubes, α7 integrin LacZ reporter signal relative to DMSO ([2]; 1 uM) | Burkin Assay in Myotubes, α7 integrin LacZ reporter signal relative to DMSO ([2]; 5 uM) | Burkin Assay in Myotubes, α7 integrin LacZ reporter signal relative to DMSO ([2]; 10 uM) | Burkin Assay in Myotubes, α7 integrin LacZ reporter signal relative to DMSO ([2]; 20 uM) | Burkin Assay in Myotubes, α7 integrin LacZ reporter signal relative to DMSO ([2]; 40 uM) | CMV-LACZ in Myoblasts (β-galactosidase activity relative to DMSO) ([3]; 0.5 uM) | CMV-LACZ in Myoblasts (β-galactosidase activity relative to DMSO) ([3]; 1 uM) | CMV-LACZ in Myoblasts (β-galactosidase activity relative to DMSO) ([3]; 5 uM) | CMV-LACZ in Myoblasts (β-galactosidase activity relative to DMSO) ([3]; 10 uM) | CMV-LACZ in Myoblasts (β-galactosidase activity relative to DMSO) ([3]; 20 uM) | CMV-LACZ in Myoblasts (β-galactosidase activity relative to DMSO) ([3]; 40 uM) | CMV-LACZ in Myotubes, signal relative to DMSO ([4]; 0.5 uM) | CMV-LACZ in Myotubes, signal relative to DMSO ([4]; 1 uM) | further results
1 | CCNC(=O)C(=O)Nc1cc2c3c(c1)CCN3C(=O)CC2 [MLS001167798-01] | 1.058 | 1.166 | 1.277 | 1.064 | 1.051 | 1.006 | 1.051 | 0.9243 | 1.118 | 0.9382 | 0.7983 | 0.7231 | 1.0342 | 0.7750 | 1.1822 | 1.1494 | 1.2196 | 1.1452 | 0.9143 | 0.9295 | CMV-LACZ in Myotubes, signal relative to DMSO ([4]; 5 uM): 1.1987; CMV-LACZ in Myotubes, signal relative to DMSO ([4]; 10 uM): 1.2238; CMV-LACZ in Myotubes, signal relative to DMSO ([4]; 20 uM): 1.3337; CMV-LACZ in Myotubes, signal relative to DMSO ([4]; 40 uM): 1.2800
2 | CCN(C(=O)c1ccc(S(=O)(=O)N(C)C)cc1)C(C)C(=O)Nc1ccc(C)cc1 (stereo not drawn) [MLS001170856-01] | 0.95 | 0.8651 | 0.9744 | 1.244 | 0.9217 | 0.7133 | 0.8296 | 0.7436 | 0.91 | 1.064 | 0.7763 | 1.029 | 0.7337 | 0.9857 | 0.7938 | 1.0004 | 0.8881 | 0.8389 | 1.1095 | 0.9105 | CMV-LACZ in Myotubes, signal relative to DMSO ([4]; 5 uM): 1.0074; CMV-LACZ in Myotubes, signal relative to DMSO ([4]; 10 uM): 1.0562; CMV-LACZ in Myotubes, signal relative to DMSO ([4]; 20 uM): 1.1518; CMV-LACZ in Myotubes, signal relative to DMSO ([4]; 40 uM): 0.8753
3 | Cc1ccsc1CN(C)CC(=O)Nc1ccc([N+](=O)[O-])cc1Cl [MLS001172822-01] | 1.233 | 1.351 | 0.9662 | 0.9014 | 0.987 | 0.9597 | 0.9496 | 0.9315 | 0.8513 | 0.861 | 0.8466 | 0.7858 | 0.9304 | 1.0617 | 1.1375 | 1.0904 | 0.9285 | 1.2767 | 1.2590 | 1.0514 | CMV-LACZ in Myotubes, signal relative to DMSO ([4]; 5 uM): 1.2505; CMV-LACZ in Myotubes, signal relative to DMSO ([4]; 10 uM): 1.1819; CMV-LACZ in Myotubes, signal relative to DMSO ([4]; 20 uM): 1.1768; CMV-LACZ in Myotubes, signal relative to DMSO ([4]; 40 uM): 0.6358
4 | CCCn1c(-c2cc(OC)c(OC)c(OC)c2)nc2c1c(=O)[nH]c(=O)n2Cc1ccccc1 [MLS001174740-01] | 1.221 | 1.193 | 0.8512 | 1.181 | 0.9658 | 0.5414 | 0.9078 | 0.8687 | 0.8574 | 0.9017 | 0.7823 | 0.7064 | 1.2750 | 0.9721 | 1.0046 | 0.9490 | 0.4293 | 0.4578 | 0.8533 | 0.9267 | CMV-LACZ in Myotubes, signal relative to DMSO ([4]; 5 uM): 0.9101; CMV-LACZ in Myotubes, signal relative to DMSO ([4]; 10 uM): 1.0520; CMV-LACZ in Myotubes, signal relative to DMSO ([4]; 20 uM): 1.0568; CMV-LACZ in Myotubes, signal relative to DMSO ([4]; 40 uM): 0.8863
5 | O=C(N[C@@H](Cc1c[nH]c2ccccc12)C(=O)O)C1CCN(S(=O)(=O)c2cccs2)CC1 [MLS001175021-01] | 0.92 | 0.9803 | 0.8806 | 0.906 | 0.9747 | 0.9575 | 1.061 | 1.0167 | 1.051 | 0.9913 | 0.9799 | 0.8788 | 1.1772 | 1.0729 | 0.9282 | 0.9395 | 1.1070 | 1.0907 | 1.0611 | 0.9621 | CMV-LACZ in Myotubes, signal relative to DMSO ([4]; 5 uM): 0.9049; CMV-LACZ in Myotubes, signal relative to DMSO ([4]; 10 uM): 0.7979; CMV-LACZ in Myotubes, signal relative to DMSO ([4]; 20 uM): 1.1378; CMV-LACZ in Myotubes, signal relative to DMSO ([4]; 40 uM): 0.9733
6 | Cc1cccc(C)c1NCC(=O)N1CCN(Cc2ccccc2)CC1.Cl [MLS001176153-01] | 1.06 | 1.045 | 0.9185 | 0.8767 | 1.145 | 1.12 | 1.007 | 1.027 | 0.9538 | 1.106 | 0.9238 | 0.9818 | 1.2729 | 1.4588 | 0.8976 | 0.9140 | 0.9322 | 1.0763 | 0.8316 | 0.9832 | CMV-LACZ in Myotubes, signal relative to DMSO ([4]; 5 uM): 0.7944; CMV-LACZ in Myotubes, signal relative to DMSO ([4]; 10 uM): 0.9388; CMV-LACZ in Myotubes, signal relative to DMSO ([4]; 20 uM): 1.0256; CMV-LACZ in Myotubes, signal relative to DMSO ([4]; 40 uM): 1.0878
